This passage reports GI50 and TGI results from PubChem BioAssay (NCI).

Each structure is given as a SMILES string. “And” between values parts separate entries of the source, which are not always exact repeats. Equal values may be shown once.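 Results reflect a 48-hour exposure of cells in 96-well plates to compound at five concentrations. At the GI50, growth is halved. The concentration for full growth arrest is given as TGI.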

Test systems include PC-3 prostate; U251 CNS; ACHN renal; MOLT-4 leukemia; OVCAR-8 ovarian; CAKI-1 renal; TK-10 renal; UACC-62 melanoma; RPMI-8226 leukemia; SF-268 CNS.
Common to all, as to experiment: inhibition of tumour cell growth, NCI panel, 48 h

As to `COc1ccc(-c2nn(-c3cccc(Cl)c3)cc2C2CC(c3ccccc3)=NN2C(C)=O)cc1` (stereo not drawn), the GI50 is 6.8 µM with PC-3 prostate; 3.15 µM with U251 CNS; 3.48 µM with ACHN renal; more than 100 µM in the test with MOLT-4 leukemia; 4.75 µM in the test with OVCAR-8 ovarian; 6.54 µM with CAKI-1 renal. The GI50 was 5 µM with TK-10 renal, 15.3 µM with UACC-62 melanoma, more than 100 µM with RPMI-8226 leukemia and 3.13 µM with SF-268 CNS. Also, the TGI is more than 100 µM in the test on PC-3 prostate; 14.9 µM with U251 CNS; 20 µM with ACHN renal; more than 100 µM in the test with MOLT-4 leukemia; more than 100 µM with OVCAR-8 ovarian; more than 100 µM with CAKI-1 renal. In addition, the TGI was 21.6 µM with TK-10 renal, more than 100 µM with UACC-62 melanoma, more than 100 µM in the test on RPMI-8226 leukemia and 14.2 µM with SF-268 CNS.
As for `COc1cccc(/C=C/C(=O)c2cc3c(N)c(C(=O)Nc4ccccc4C)sc3nc2C)c1`, the GI50 in the test with PC-3 prostate is 1.69 µM; in the test with U251 CNS it was 0.892 µM; in the test with ACHN renal, 0.894 µM; with MOLT-4 leukemia it was 1.49 µM; with OVCAR-8 ovarian, 1.26 µM; with CAKI-1 renal, 1.66 µM. Further, the GI50 in the test with TK-10 renal is 1.55 µM; with UACC-62 melanoma, 0.905 µM; with RPMI-8226 leukemia it was 1.09 µM; in the test on SF-268 CNS, 1.78 µM. Besides, the TGI in the test with PC-3 prostate is 8.3 µM; in the test with U251 CNS, 1.81 µM; in the test with ACHN renal, 1.86 µM; in the test with MOLT-4 leukemia it was 27.8 µM; in the test on OVCAR-8 ovarian, more than 50 µM; in the test with CAKI-1 renal, 5.75 µM. In addition, the TGI in the test with TK-10 renal was 6.21 µM; with UACC-62 melanoma, 2 µM; with RPMI-8226 leukemia, 2.92 µM; in the test on SF-268 CNS, 7.66 µM.
Take `CC(=O)Nc1cccc(-n2c(=O)n(C3CC3)c(=O)c3c(Nc4ccc(I)cc4F)n(C)c(=O)c(C)c32)c1`: the GI50 in the test with PC-3 prostate is 6.33 µM and > 10 µM; in the test on U251 CNS it was 0.401 µM; with ACHN renal, 0.49 µM and 0.291 µM; with MOLT-4 leukemia, 6.96 µM and > 9.64 µM; in the test on OVCAR-8 ovarian, 4.22 µM and > 6.71 µM; with CAKI-1 renal, 0.203 µM. Moreover, the GI50 is < 0.0144 µM and 0.00977 µM in the test with TK-10 renal; < 0.01 µM and 0.00184 µM in the test with UACC-62 melanoma; 5.35 µM and > 4.38 µM in the test on RPMI-8226 leukemia; 3.85 µM and > 6.08 µM in the test on SF-268 CNS. In addition, the TGI with PC-3 prostate is 46.3 µM and > 10 µM; in the test with U251 CNS, 32 µM and > 10 µM; in the test with ACHN renal, more than 79.5 µM; with MOLT-4 leukemia it was more than 100 µM; in the test on OVCAR-8 ovarian, more than 49.6 µM; in the test on CAKI-1 renal, more than 46.5 µM. Besides, the TGI in the test with TK-10 renal was 20.7 µM and > 10 µM; with UACC-62 melanoma, 0.0182 µM; with RPMI-8226 leukemia, more than 100 µM; with SF-268 CNS, more than 100 µM.
On to `NC(CO)Cc1cnc[nH]1` (stereo not drawn), for which the GI50 in the test on PC-3 prostate, with U251 CNS, in the test with ACHN renal, in the test on MOLT-4 leukemia, in the test on OVCAR-8 ovarian and in the test with TK-10 renal was more than 100 µM in each case. For the same molecule, the GI50 in the test on UACC-62 melanoma, with RPMI-8226 leukemia and in the test on SF-268 CNS was more than 100 µM in each case. Further, the TGI in the test on PC-3 prostate, in the test with U251 CNS, in the test with ACHN renal, in the test on MOLT-4 leukemia, with OVCAR-8 ovarian and in the test on CAKI-1 renal was more than 100 µM in each case. Further, the TGI in the test with TK-10 renal, with UACC-62 melanoma, with RPMI-8226 leukemia and with SF-268 CNS was more than 100 µM throughout.
As to `COc1ccc(C(=O)Nc2ncc(Cc3ccc(Cl)cc3)s2)cc1`, the GI50 in the test with PC-3 prostate was 0.0528 µM; in the test with U251 CNS, 0.0691 µM; with ACHN renal, 0.0603 µM; with MOLT-4 leukemia it was 0.064 µM; with OVCAR-8 ovarian it was 0.117 µM; in the test on CAKI-1 renal, 0.0471 µM. The GI50 in the test on TK-10 renal was 3.94 µM; in the test with UACC-62 melanoma it was 0.0475 µM; with RPMI-8226 leukemia, 0.0375 µM; in the test on SF-268 CNS it was 0.3 µM. The TGI in the test on PC-3 prostate was more than 100 µM; with U251 CNS it was more than 100 µM; in the test on ACHN renal, more than 100 µM; in the test with MOLT-4 leukemia it was more than 100 µM; in the test with OVCAR-8 ovarian it was more than 100 µM; in the test on CAKI-1 renal, more than 73.1 µM. Further, the TGI in the test on TK-10 renal, with UACC-62 melanoma and in the test with SF-268 CNS was more than 100 µM throughout.
As for `Cc1ccc2c(C(C[N+](=O)[O-])c3cccs3)c(-c3ccccc3)[nH]c2c1` (stereo not drawn), the GI50 in the test on PC-3 prostate was 2.46 µM; in the test on U251 CNS, 1.72 µM; in the test with ACHN renal, 2.15 µM; with MOLT-4 leukemia, 1.53 µM; in the test on OVCAR-8 ovarian, 3.55 µM; in the test with CAKI-1 renal, 1.04 µM. Besides, the GI50 is 7.46 µM in the test on TK-10 renal, 1.4 µM in the test with UACC-62 melanoma, 2.05 µM with RPMI-8226 leukemia and 2.77 µM in the test on SF-268 CNS. Also, the TGI was 16.1 µM in the test on PC-3 prostate; 7.59 µM in the test on U251 CNS; 13.3 µM with ACHN renal; more than 33.3 µM in the test on MOLT-4 leukemia; more than 33.3 µM in the test on OVCAR-8 ovarian; 5.12 µM with CAKI-1 renal. Moreover, the TGI worked out at 18.5 µM with TK-10 renal, 5.58 µM with UACC-62 melanoma, 23.7 µM in the test with RPMI-8226 leukemia and 11.5 µM in the test on SF-268 CNS.
Turning to `N#Cc1c(NC(=O)c2cccc(C(F)(F)F)c2)sc2c1CCC(=O)C2`, the GI50 with PC-3 prostate is 0.292 µM; in the test with U251 CNS, 0.352 µM; with ACHN renal it was 0.327 µM; in the test on MOLT-4 leukemia, 0.35 µM; in the test on OVCAR-8 ovarian, 1.15 µM; with CAKI-1 renal it was 0.287 µM. Also, the GI50 is 0.543 µM in the test on TK-10 renal, 0.495 µM in the test with UACC-62 melanoma, 0.239 µM in the test with RPMI-8226 leukemia and 0.91 µM in the test with SF-268 CNS. Also, the TGI with PC-3 prostate was 1.41 µM; with U251 CNS, 1.58 µM; in the test on ACHN renal, 0.985 µM; with MOLT-4 leukemia it was more than 32.2 µM; in the test on OVCAR-8 ovarian it was 6.97 µM; in the test with CAKI-1 renal it was 1 µM. Moreover, the TGI came out at 2.34 µM in the test with TK-10 renal, 2.14 µM with UACC-62 melanoma, 0.869 µM in the test with RPMI-8226 leukemia and 5.9 µM in the test with SF-268 CNS.
Take `Fc1cccc(COc2ccc(Nc3ncncc3C#Cc3ccccc3)cc2Cl)c1`: the GI50 was more than 25 µM with PC-3 prostate; more than 25 µM with U251 CNS; more than 25 µM in the test on ACHN renal; more than 25 µM in the test on MOLT-4 leukemia; more than 25 µM in the test on OVCAR-8 ovarian; 12.5 µM in the test with CAKI-1 renal. The GI50 with TK-10 renal is 15 µM; with UACC-62 melanoma, more than 25 µM; in the test with RPMI-8226 leukemia, more than 25 µM; in the test with SF-268 CNS, more than 25 µM. Besides, the TGI with PC-3 prostate, in the test on U251 CNS, with ACHN renal, in the test with MOLT-4 leukemia, in the test with OVCAR-8 ovarian and in the test on CAKI-1 renal was more than 25 µM throughout. In addition, the TGI with TK-10 renal, in the test with UACC-62 melanoma, in the test on RPMI-8226 leukemia and in the test on SF-268 CNS was more than 25 µM throughout.
